Reference: patent US20240101576A1, “HETEROCYCLIC INHIBITORS OF EGFR AND/OR HER2, FOR USE IN THE TREATMENT OF CANCER” (Scorpion Therapeutics, Inc., priority 2020, published 2024)

Assays:
Type in all cases: cell-based
[1] = biological target: T1, EGFR exon 20 SVD Ins D770_N771 (Ba/F3 cells) (Homo sapiens, UniProt P00533, INS770SVD); test: Inhibitor activity on EGFR-dependent cell growth (CellTiter-Glo, 72 h), Ba/F3 EGFR exon 20 SVD Ins; details: read-out: BaF3 SVD IC50
T1 construct: expressed in transfected cells; host or cells: Ba/F3 (murine pro-B cells), retroviral transduction, puromycin selection, IL3-independent pool
T1 sequence (P00533 with tags, fused parts or gaps INS770SVD): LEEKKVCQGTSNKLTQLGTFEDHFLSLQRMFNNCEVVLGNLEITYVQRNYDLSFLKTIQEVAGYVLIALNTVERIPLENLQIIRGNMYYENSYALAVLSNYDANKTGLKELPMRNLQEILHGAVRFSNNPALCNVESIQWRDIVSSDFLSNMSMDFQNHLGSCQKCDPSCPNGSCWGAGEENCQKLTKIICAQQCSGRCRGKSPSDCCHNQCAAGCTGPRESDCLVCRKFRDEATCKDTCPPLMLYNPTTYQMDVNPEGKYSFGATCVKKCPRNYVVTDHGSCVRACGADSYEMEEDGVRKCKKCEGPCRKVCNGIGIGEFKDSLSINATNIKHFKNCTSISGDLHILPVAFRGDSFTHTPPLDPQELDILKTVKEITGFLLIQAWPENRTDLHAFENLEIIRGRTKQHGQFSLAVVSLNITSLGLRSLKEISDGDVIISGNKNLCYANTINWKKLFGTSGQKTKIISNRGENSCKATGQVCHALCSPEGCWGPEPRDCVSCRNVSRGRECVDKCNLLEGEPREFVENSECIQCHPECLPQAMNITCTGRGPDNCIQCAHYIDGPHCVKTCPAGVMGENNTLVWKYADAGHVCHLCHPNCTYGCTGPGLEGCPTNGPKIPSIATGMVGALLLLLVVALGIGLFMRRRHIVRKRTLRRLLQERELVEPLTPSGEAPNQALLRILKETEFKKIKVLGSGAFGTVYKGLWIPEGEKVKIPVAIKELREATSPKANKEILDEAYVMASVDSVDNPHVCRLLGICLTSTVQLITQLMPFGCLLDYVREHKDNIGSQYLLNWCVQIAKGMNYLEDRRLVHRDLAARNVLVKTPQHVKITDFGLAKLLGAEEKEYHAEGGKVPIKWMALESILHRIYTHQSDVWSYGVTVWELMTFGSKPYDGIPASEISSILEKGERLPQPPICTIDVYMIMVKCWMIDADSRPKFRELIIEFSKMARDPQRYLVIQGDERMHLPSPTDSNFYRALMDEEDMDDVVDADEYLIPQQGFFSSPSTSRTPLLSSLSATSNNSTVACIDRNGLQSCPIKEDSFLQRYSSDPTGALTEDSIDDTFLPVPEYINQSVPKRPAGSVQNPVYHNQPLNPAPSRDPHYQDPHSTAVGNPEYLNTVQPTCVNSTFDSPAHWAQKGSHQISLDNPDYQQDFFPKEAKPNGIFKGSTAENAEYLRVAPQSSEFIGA
How it was run: (§1)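 IC50s derive from a sigmoidal dose–response fit of CellTiter-Glo signal. The signal was normalised between […]-treated cells and cell-free medium. Ba/F3 mutant-EGFR cells, seeded at 400–800/well depending on the line, had 72 h of exposure to a 10-point, 3-fold compound series.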

[2] = biological target: T2, EGFR exon 20 NPG Ins D770_N771 (Ba/F3 cells) (Homo sapiens, UniProt P00533, INS770NPG); test: Inhibitor activity on EGFR phosphorylation (pEGFR AlphaLISA, 2 h), Ba/F3 EGFR exon 20 NPG Ins
T2 construct: expressed in transfected cells; host or cells: Ba/F3 (murine pro-B cells), retroviral transduction, puromycin selection, IL3-independent pool
Description: Example B. Inhibitor Activity on EGFR phosphorylation (pEGFR)
EGFR mutant Ba/F3 cells were generated by transduction with retrovirus containing vectors expressing EGFR L858R, EGFR exon 19del, EGFR L858R/C797S, EGFR exon 20 NPG Ins D770_N771, EGFR exon 20 ASV Ins V769_D770, or EGFR exon 20 SVD Ins D770_N771 genes along with a puromycin selection marker. Transduced cells are selected with puromycin for 7 days and are then be transferred into culture media without Interleukin 3 (IL3). Surviving cells are confirmed to express EGFR by Western blot and maintained as a pool. CUTO14 cells were obtained from Dr. Robert C. Doebele at the University of Colorado. The IC50 date are included in Table 6 and Table 7.
1.1 Cells are harvested from flask into cell culture medium and the cell number counted.
1.2 Cells are diluted with culture medium to the desired density and 40 μL of cell suspension is added into each well of 384-well cell culture plate and the seeding density is 50K cells/well (Ba/F3) or 12.5K cells/well (CUTO14).
2 Compound Preparation and Treatment
2.1 Test compounds are dissolved to 10 mM in a DMSO stock solution. 45 μL of stock solution is transferred to a 384 polypropylene plate (pp-plate). Perform 3-fold, 10-point dilution via transferring 15 μL compound into 30 μL DMSO using a TECAN (EVO200) liquid handler.
2.2 Spin plates at room temperature at 1,000 RPM for 1 minute.
2.3 Transfer 5 nL of diluted compound from compound source plate into the cell plate.
2.4 After compound treatment for 2 hours, perform pEGFR detection by AlphaLISA for compound treatment plates as described in “Detection” section.
3 Detection by pEGFR AlphaLISA (Perkin-Elmer)
3.1 Plates are removed from incubators and equilibrated at room temperature for 10 minutes, and media was removed
3.2 10 μL of lysis buffer is added and plates shaken at 600 rpm for 1 hr.
3.3 Prepare acceptor mix just before use and dispense 5 μL of acceptor mix to all the wells. Shake 350 rpm for Ihr in the dark
3.4 Prepare donor mix under low light conditions prior to use. Dispense 5 μL of donor mix to all the wells. Mix well on the shaker, seal and wrap in aluminum foil and incubate 1.5 hrs at room temperature in the dark
3.5 Transfer 18.5 μL mixture to OptiPlate 384, and read using an Envision. The IC50 date were included in Table 6 and Table 7.

[3] = biological target: T3, EGFR exon 20 ASV Ins V769_D770 (Ba/F3 cells) (Homo sapiens, UniProt P00533, INS769ASV); test: Inhibitor activity on EGFR-dependent cell growth (CellTiter-Glo, 72 h), Ba/F3 EGFR exon 20 ASV Ins; details: read-out: BaF3 ASV IC50
T3 construct: expressed in transfected cells; host or cells: Ba/F3 (murine pro-B cells), retroviral transduction, puromycin selection, IL3-independent pool
T3 sequence (P00533 with tags, fused parts or gaps INS769ASV): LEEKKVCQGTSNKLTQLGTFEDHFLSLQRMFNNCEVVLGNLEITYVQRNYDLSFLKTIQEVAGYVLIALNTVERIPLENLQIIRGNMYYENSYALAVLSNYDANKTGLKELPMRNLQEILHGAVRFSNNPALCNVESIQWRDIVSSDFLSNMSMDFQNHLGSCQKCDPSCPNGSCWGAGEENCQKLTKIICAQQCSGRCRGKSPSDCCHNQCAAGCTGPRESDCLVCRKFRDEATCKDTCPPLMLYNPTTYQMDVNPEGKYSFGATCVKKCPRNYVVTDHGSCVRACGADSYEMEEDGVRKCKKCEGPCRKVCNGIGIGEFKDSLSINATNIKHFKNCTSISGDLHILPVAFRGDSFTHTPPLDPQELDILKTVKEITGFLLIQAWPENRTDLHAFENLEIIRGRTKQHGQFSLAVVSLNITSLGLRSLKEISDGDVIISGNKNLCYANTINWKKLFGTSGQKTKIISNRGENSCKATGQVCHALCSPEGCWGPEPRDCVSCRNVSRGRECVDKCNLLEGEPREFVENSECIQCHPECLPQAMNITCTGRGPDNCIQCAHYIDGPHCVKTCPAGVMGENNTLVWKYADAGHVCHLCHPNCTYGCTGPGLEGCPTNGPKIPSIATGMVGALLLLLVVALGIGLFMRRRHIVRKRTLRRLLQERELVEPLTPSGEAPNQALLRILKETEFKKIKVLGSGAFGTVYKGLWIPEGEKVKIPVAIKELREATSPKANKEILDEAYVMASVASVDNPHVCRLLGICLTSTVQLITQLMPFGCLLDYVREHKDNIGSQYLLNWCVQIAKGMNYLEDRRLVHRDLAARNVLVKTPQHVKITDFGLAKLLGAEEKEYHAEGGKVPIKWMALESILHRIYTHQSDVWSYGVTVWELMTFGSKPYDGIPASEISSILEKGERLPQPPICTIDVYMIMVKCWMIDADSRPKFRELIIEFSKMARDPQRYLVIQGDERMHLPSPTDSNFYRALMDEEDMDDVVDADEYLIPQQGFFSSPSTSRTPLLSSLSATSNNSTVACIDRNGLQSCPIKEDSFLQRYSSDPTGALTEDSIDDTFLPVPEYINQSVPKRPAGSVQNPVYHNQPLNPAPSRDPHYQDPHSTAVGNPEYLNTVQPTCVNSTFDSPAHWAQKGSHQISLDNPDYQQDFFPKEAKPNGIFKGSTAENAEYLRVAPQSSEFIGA
How it was run: as §1

[4] = biological target: T2, EGFR exon 20 NPG Ins D770_N771 (Ba/F3 cells); test: Inhibitor activity on EGFR-dependent cell growth (CellTiter-Glo, 72 h), Ba/F3 EGFR exon 20 NPG Ins; details: read-out: BaF3 NPG IC50
How it was run: as §1

EGFR WT (Ba/F3 cells) = biological target: T4, EGFR WT (Ba/F3 cells) (Homo sapiens, UniProt P00533); test: Inhibitor activity on EGFR-dependent cell growth (CellTiter-Glo, 72 h), Ba/F3 EGFR WT; details: read-out: BaF3 WT IC50
T4 construct: expressed in transfected cells; host or cells: Ba/F3 (murine pro-B cells), retroviral transduction, puromycin selection, maintained with EGF
T4 sequence (P00533 25-1210): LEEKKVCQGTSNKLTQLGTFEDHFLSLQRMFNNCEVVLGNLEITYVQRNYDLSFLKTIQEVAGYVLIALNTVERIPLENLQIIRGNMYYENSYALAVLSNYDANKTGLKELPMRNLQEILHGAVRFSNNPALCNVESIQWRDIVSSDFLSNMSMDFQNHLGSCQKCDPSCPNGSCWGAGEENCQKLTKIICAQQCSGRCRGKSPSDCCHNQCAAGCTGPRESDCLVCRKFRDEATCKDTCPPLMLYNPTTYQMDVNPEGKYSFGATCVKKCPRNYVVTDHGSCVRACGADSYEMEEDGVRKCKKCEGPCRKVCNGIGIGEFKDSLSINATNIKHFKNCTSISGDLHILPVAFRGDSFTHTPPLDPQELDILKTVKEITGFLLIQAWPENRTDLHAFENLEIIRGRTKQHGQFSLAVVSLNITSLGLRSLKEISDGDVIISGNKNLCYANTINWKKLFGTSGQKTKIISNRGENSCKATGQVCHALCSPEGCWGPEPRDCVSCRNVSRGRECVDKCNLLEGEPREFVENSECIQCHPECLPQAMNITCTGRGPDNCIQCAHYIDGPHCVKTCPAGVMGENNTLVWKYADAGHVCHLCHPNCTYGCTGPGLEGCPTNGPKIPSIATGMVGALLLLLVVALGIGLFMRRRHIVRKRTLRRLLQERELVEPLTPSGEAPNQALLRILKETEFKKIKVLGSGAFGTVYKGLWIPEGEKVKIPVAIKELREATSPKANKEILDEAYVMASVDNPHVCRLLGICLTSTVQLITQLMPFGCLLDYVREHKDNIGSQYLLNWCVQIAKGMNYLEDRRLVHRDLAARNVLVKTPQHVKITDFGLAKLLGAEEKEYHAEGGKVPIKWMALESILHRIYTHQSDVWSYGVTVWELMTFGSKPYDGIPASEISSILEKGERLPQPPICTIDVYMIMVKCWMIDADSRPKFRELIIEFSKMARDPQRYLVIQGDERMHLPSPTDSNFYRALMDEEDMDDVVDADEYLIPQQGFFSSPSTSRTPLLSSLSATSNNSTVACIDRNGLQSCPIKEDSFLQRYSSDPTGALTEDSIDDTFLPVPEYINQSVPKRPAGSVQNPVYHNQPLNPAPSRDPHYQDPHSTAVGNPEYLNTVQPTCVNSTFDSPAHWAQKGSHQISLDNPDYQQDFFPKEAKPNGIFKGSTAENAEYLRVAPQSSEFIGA
How it was run: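 This growth assay used Ba/F3 cells that depend on wild-type EGFR and are kept in EGF without IL3. Compounds were made up as 10 mM DMSO stocks and diluted 3-fold over 10 points. 120 nL went onto 600 cells/well. After 72 hours, 40 μL CellTiter-Glo was added and luminescence read on EnVision after 30 min.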

[5] = biological target: T5, EGFR exon 20 FQEA Ins A763_V764 (Ba/F3 cells) (Homo sapiens, UniProt P00533, INS763FQEA); test: Inhibitor activity on EGFR-dependent cell growth (CellTiter-Glo, 72 h), Ba/F3 EGFR exon 20 FQEA Ins; details: read-out: BaF3 FQEA IC50
T5 construct: expressed in transfected cells; host or cells: Ba/F3 (murine pro-B cells), retroviral transduction, puromycin selection, IL3-independent pool
T5 sequence (P00533 with tags, fused parts or gaps INS763FQEA): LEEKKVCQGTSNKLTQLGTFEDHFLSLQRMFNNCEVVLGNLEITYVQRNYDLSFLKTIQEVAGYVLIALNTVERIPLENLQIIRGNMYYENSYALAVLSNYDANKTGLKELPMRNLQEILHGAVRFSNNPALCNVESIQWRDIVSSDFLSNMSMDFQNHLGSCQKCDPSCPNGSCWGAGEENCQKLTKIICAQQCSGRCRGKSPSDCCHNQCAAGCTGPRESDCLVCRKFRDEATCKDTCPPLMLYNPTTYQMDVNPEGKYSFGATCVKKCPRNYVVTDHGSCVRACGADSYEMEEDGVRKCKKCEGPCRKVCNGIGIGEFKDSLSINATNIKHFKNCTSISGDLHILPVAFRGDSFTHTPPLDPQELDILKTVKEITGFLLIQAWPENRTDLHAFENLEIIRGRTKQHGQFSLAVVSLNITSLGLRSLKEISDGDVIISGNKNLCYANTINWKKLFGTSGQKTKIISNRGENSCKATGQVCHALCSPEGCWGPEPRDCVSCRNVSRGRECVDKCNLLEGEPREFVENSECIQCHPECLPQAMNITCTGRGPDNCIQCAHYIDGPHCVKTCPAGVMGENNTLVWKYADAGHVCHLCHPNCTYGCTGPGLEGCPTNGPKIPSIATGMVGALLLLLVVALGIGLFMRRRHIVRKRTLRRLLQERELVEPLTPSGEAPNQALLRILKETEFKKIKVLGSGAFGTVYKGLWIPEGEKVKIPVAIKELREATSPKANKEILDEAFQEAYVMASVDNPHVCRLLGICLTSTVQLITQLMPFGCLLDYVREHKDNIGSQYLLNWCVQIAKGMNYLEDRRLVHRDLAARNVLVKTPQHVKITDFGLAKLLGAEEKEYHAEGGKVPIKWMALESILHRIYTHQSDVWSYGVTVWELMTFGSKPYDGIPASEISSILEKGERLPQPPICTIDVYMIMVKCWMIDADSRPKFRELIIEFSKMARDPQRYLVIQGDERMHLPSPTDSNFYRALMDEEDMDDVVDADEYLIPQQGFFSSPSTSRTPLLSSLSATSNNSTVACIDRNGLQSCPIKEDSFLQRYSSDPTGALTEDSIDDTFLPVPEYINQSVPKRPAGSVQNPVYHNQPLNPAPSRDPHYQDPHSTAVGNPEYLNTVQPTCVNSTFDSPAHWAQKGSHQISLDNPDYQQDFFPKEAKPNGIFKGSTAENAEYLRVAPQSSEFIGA
How it was run: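 For each mutant line, growth depends on EGFR signalling in the absence of IL3. Density per well: 400 for L858R, 600 for the C797S double mutant, 800 for exon 19del and FQEA. Ten threefold dilutions were applied for 72 h. %Inhibition = 100×(DMSO − sample)/(DMSO − medium blank).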

Row | SMILES | IC50 [1] | IC50 [2] | IC50 [3] | IC50 [4] | IC50 (EGFR WT (Ba/F3 cells)) | IC50 [5]
1 | COc1c(F)cccc1Nc1c(-c2ncnc3c2ccn3C)[nH]c2c1C(=O)NCC2 [Compound 150, 3-((3-fluoro-2-methoxyphenyl)amino)-2-(7-methyl-7H-pyrrolo[2,3-d]pyrimidin-4-yl)-1,5,6,7-tetrahydro-4H-pyrrolo[3,2-c]pyridin-4-one] |  | > 1000 nM |  | > 1000 nM | > 1000 nM | 
2 | COc1c(F)cccc1Nc1c(-c2snc3ccccc23)[nH]c2c1C(=O)NCC2 [Compound 157, 2-(benzo[c]isothiazol-3-yl)-3-((3-fluoro-2-methoxyphenyl)amino)-1,5,6,7-tetrahydro-4H-pyrrolo[3,2-c]pyridin-4-one] |  | > 1000 nM |  | > 1000 nM | 100 to 1000 nM | 
3 | COc1nc2c(-c3[nH]c4c(c3Nc3cccc(F)c3OC)C(=O)NCC4)ccnc2cc1C [Compound 682, 3-[(3-fluoro-2-methoxyphenyl)amino]-2-(6-methoxy-7-methyl-1,5-naphthyridin-4-yl)-1H,5H,6H,7H-pyrrolo[3,2-c]pyridin-4-one] |  | < 100 nM |  | < 100 nM | < 100 nM | 
4 | COc1c(Cl)cccc1Nc1c(-c2ccnc(Nc3cn(C)nn3)n2)[nH]c2c1C(=O)NCC2 [compound 511, 3-[(3-chloro-2-methoxyphenyl)amino]-2-{2-[(1-methyl-1,2,3-triazol-4-yl)amino]pyrimidin-4-yl}-1H,5H,6H,7H-pyrrolo[3,2-c]pyridin-4-one] | < 100 nM | < 100 nM | < 100 nM | < 100 nM | 100 to 1000 nM | < 100 nM
5 | COc1c(F)cccc1Nc1c(-c2ncnc3[nH]ncc23)[nH]c2c1C(=O)NCC2 [Compound 158, 3-((3-fluoro-2-methoxyphenyl)amino)-2-(1H-pyrazolo[3,4-d]pyrimidin-4-yl)-1,5,6,7-tetrahydro-4H-pyrrolo[3,2-c]pyridin-4-one] |  | 100 to 1000 nM |  | > 1000 nM | > 1000 nM | 
6 | COc1c(F)cccc1Nc1c(-c2ccnc(-c3ccccc3)c2)[nH]c2c1C(=O)NCC2 [Compound 159, 3-((3-fluoro-2-methoxyphenyl)amino)-2-(2-phenylpyridin-4-yl)-1,5,6,7-tetrahydro-4H-pyrrolo[3,2-c]pyridin-4-one] |  | > 1000 nM |  | > 1000 nM | 100 to 1000 nM | 
7 | COc1cc2nccc(-c3[nH]c4c(c3Nc3cccc(F)c3C)C(=O)NCC4)c2nc1OC [Compound 808, 2-(6,7-dimethoxy-1,5-naphthyridin-4-yl)-3-[(3-fluoro-2-methylphenyl)amino]-1H,5H,6H,7H-pyrrolo[3,2-c]pyridin-4-one] | < 100 nM | < 100 nM | < 100 nM |  | < 100 nM | < 100 nM
8 | COc1c(Cl)cccc1Nc1c(-c2ccnc(N)n2)[nH]c2c1C(=O)NC[C@@H]2C[C@@H]1COCCO1 [Compound 532, (7S)-2-(2-aminopyrimidin-4-yl)-3-[(3-chloro-2-methoxyphenyl)amino]-7-[(2R)-1,4-dioxan-2-ylmethyl]-1H,5H,6H,7H-pyrrolo[3,2-c]pyridin-4-one] | < 100 nM | < 100 nM | < 100 nM | < 100 nM | > 1000 nM | 
9 | COc1c(Cl)cccc1Nc1c(-c2ccnc3cnc(OC4COC4)nc23)[nH]c2c1C(=O)NCC2 [compound 441] | < 100 nM | < 100 nM | < 100 nM | < 100 nM | 100 to 1000 nM | < 100 nM
10 | Nc1nccc(-c2[nH]c3c(c2Nc2cccc(F)c2OC(F)F)C(=O)NCC3)n1 [compound 299] | 100 to 1000 nM | < 100 nM | 100 to 1000 nM | 100 to 1000 nM | > 1000 nM | 100 to 1000 nM
11 | COc1ccc2nccc(-c3[nH]c4c(c3Nc3cccc(Cl)c3OC)C(=O)NCC4)c2n1 [Compound 149, 3-((3-chloro-2-methoxyphenyl)amino)-2-(6-methoxy-1,5-naphthyridin-4-yl)-1,5,6,7-tetrahydro-4H-pyrrolo[3,2-c]pyridin-4-one] | < 100 nM | < 100 nM | < 100 nM | < 100 nM |  | < 100 nM
12 | COc1c(F)cccc1Nc1c(-c2ccnc(N)n2)[nH]c2c1C(=O)NCC2 [compound 281] |  | < 100 nM |  | < 100 nM | > 1000 nM | 100 to 1000 nM
13 | COc1c(F)cccc1Nc1c(-c2ncnc3sccc23)[nH]c2c1C(=O)NCC2 [compound 138] |  | > 1000 nM |  | > 1000 nM | > 1000 nM | 

The next lines start with the values.

Row | IC50 [1] | IC50 [2] | IC50 [3] | IC50 [4] | IC50 (EGFR WT (Ba/F3 cells)) | IC50 [5] | SMILES
14 | < 100 nM | < 100 nM | < 100 nM | < 100 nM | < 100 nM |  | C=CC(=O)N1CCC(Oc2nc3c(-c4[nH]c5c(c4Nc4cccc(Cl)c4OC)C(=O)NCC5)ccnc3cc2OC)CC1 [Compound 731, 3-[(3-chloro-2-methoxyphenyl)amino]-2-(7-methoxy-6-{[1-(prop-2-enoyl)piperidin-4-yl]oxy}-1,5-naphthyridin-4-yl)-1H,5H,6H,7H-pyrrolo[3,2-c]pyridin-4-one]
15 | < 100 nM | < 100 nM | < 100 nM | < 100 nM | < 100 nM |  | C=CC(=O)N1CCN(c2ncc3nccc(-c4[nH]c5c(c4Nc4cccc(F)c4OC)C(=O)NCC5)c3n2)CC1 [Compound 576, 3-[(3-fluoro-2-methoxyphenyl)amino]-2-{2-[4-(prop-2-enoyl)piperazin-1-yl]pyrido[3,2-d]pyrimidin-8-yl}-1H,5H,6H,7H-pyrrolo[3,2-c]pyridin-4-one]
16 | < 100 nM | < 100 nM | < 100 nM | < 100 nM | < 100 nM |  | C=CC(=O)N1CCC2(CC1)CNC(=O)c1c2[nH]c(-c2ccncc2F)c1Nc1cccc(F)c1CC [Compound 557, 3′-[(2-ethyl-3-fluorophenyl)amino]-2′-(3-fluoropyridin-4-yl)-1-(prop-2-enoyl)-5′,6′-dihydro-1′H-spiro[piperidine-4,7′-pyrrolo[3,2-c]pyridin]-4′-one]
17 | < 100 nM | < 100 nM | < 100 nM | < 100 nM | < 100 nM | < 100 nM | COc1ccc2nccc(-c3[nH]c4c(c3Nc3cccc(F)c3OC)C(=O)NCC4)c2n1 [Compound 681, 3-[(3-fluoro-2-methoxyphenyl)amino]-2-(6-methoxy-1,5-naphthyridin-4-yl)-1H,5H,6H,7H-pyrrolo[3,2-c]pyridin-4-one]
18 | < 100 nM | < 100 nM | < 100 nM | < 100 nM | 100 to 1000 nM | < 100 nM | COc1c(F)cccc1Nc1c(-c2ccnc3cccnc23)[nH]c2c1C(=O)NCC2 [compound 442]
19 | < 100 nM | < 100 nM | < 100 nM | < 100 nM | < 100 nM | < 100 nM | COc1cc2nccc(-c3[nH]c4c(c3Nc3cccc(Cl)c3OC)C(=O)NCC4)c2nc1OC [compound 730, 3-[(3-chloro-2-methoxyphenyl)amino]-2-(6,7-dimethoxy-1,5-naphthyridin-4-yl)-1H,5H,6H,7H-pyrrolo[3,2-c]pyridin-4-one]
